The values below come from publication PMC4405286, “Extracellular vesicle sorting of α-Synuclein is regulated by sumoylation” (Acta Neuropathologica, 2015).

Like-named read-outs stand apart in the source and are kept apart here.

Usually Kd stands for the equilibrium constant for the complex coming apart. High values mean weaker binding, low ones tighter binding.

For this experiment, the target named is T1, SUMO-2 (Homo sapiens, UniProt P55854).
T1 construct: gene SUMO3; recombinant, untagged as far as told, pET11, E. coli (NMR, 15N-labelled); for titrations single Cys labelled with MFM probe
T1 sequence (P55854 1-92): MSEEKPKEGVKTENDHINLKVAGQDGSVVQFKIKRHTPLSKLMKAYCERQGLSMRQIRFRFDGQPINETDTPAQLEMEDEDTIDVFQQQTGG
Kind of experiment: fluorescence titration of MFM-labelled protein with SUVs, global fit. Format: binding.

The mark [1] stands for this setting: SUVs POPC:POPS:PI 85:10:5, too weak to be determined, bound set by POPS, acyl chains not given, MFM-labelled protein, 25 mM Na-HEPES, 100 mM KCl, pH 7.26, room temperature.

`CCCCCCCC/C=C\CCCCCCCC(=O)O[C@H](COC(=O)CCCCCCCCCCCCCCC)COP(=O)([O-])OCC[N+](C)(C)C` [POPC, 1-palmitoyl,2-oleoyl-sn-glycero-3-phosphocholine] returned a Kd of 180 ± 42 µM.
As for PI(3)P, the Kd (lipid in SUVs POPC:POPS:PI 85:10:5, per-lipid Kd from global fit, includes binding stoichiometry, acyl chains not given, MFM-labelled protein, 25 mM Na-HEPES, 100 mM KCl, pH 7.26, room temperature) was about 4 µM.
Under setting [1], PI(3,5)P2 returned a Kd of over 7 µM.
PI(4,5)P2 came in with a Kd under setting [1] of over 7 µM.
Under setting [1], PI(5)P gave an equilibrium dissociation constant (Kd) of over 7 µM.
